System: MMTV-PyMT tumors
Test: Gemcitabine tumor growth in Lyve1^Cre and Lyve1^WT MMTV-PyMT Hmox1^fl/fl mice
Format: in vivo, mouse
Conditions: gemcitabine 6.6mg/kg/7days
Excerpt: Figure 1 LYVE-1^+ PvTAMs modulate the immune landscape and resistance to chemotherapy in cancer through their expression of HO-1. (A) Representative image of a frozen section of MMTV-PyMT tumor stained with DAPI (nuclei; blue) and antibodies against F4/80 (magenta), HO-1 (red), CD31 (green). Colocalizing pixels for F4/80 and HO-1 are shown in yellow. Scale bar is 50 µm. (B-E) Schematic depicting the transgene of the HO-1 reporter mice (HO-1^Luc/eGFP) (top panel) and representative dot plot of FACs-gated live (7AAD^-) cells from enzyme-dispersed MMTV-PyMT HO-1^Luc/eGFP tumors separated based on their respective expression of HO-1 (eGFP) and CD45 (bottom panel) (B). HO-1/eGFP normalized median fluorescent intensity (MFI) of the indicated tumoral cell populations with background MFI subtracted from WT mice (n=5) (C). Representative contour plot of FACs-gated live (7AAD^-), CD45^+F4/80^+ TAMs separated based on their expression of CD206 and MHCII (left) and histograms showing the HO-1/eGFP expression of the subsets alongside the background fluorescence in WT mice (right) (D). Representative histograms of the TAM populations identified in (D) for their surface expression of LYVE-1 alongside their respective fluorescence minus one (FMO) staining (E). (F) Quantitation of the respective TAM populations identified in (D) across MMTV-PyMT tumors (n=10). […]

SMILES: Nc1ccn([C@@H]2O[C@H](CO)[C@@H](O)C2(F)F)c(=O)n1 [gemcitabine]
- tumor growth (Lyve1^Cre mice): long-term durable control of tumor growth
- tumor growth (Lyve1^WT mice): insensitive

Source: paper PMC7618036, “An oral heme oxygenase inhibitor targets immunosuppressive perivascular macrophages in preclinical models of cancer” (Science translational medicine, 2025)
